Experimental findings from ChEMBL document CHEMBL1148565 (Bioorg Med Chem Lett, 2006) are described below.

The test concerns the target Carbonic anhydrase 12 (Homo sapiens, UniProt O43570).

For orientation: Ki means a dissociation constant, usually derived from enzyme kinetics or from competition with a known ligand.

Sequence of Carbonic anhydrase 12 (O43570 whole entry): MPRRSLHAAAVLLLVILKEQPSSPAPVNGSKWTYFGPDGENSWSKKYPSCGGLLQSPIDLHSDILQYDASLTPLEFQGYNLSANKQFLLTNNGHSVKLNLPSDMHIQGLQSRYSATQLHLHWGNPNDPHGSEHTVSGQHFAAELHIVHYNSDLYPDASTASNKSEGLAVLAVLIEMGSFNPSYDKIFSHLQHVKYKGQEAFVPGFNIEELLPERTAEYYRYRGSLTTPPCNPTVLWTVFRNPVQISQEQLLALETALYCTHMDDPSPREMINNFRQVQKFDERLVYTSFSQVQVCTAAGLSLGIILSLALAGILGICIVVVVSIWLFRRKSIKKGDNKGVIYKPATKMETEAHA
Description: Inhibitory activity against cloned human CA12

For the compound `Cc1ccc(-c2cc(C(F)(F)F)nn2-c2ccc(S(N)(=O)=O)cc2)cc1` [CELECOXIB], the Ki was 18 nM.
